Laboratory results: ChEMBL document CHEMBL5053508, “Optimization of Beclin 1-Targeting Stapled Peptides by Staple Scanning Leads to Enhanced Antiproliferative Potency in Cancer Cells” (J Med Chem, 2021)

Legend:
Assay type in all cases: functional
[1] = tested on: SK-BR-3; assay: Antiproliferative activity against human SK-BR-3 cells assessed as reduction in cell growth at 20 uM incubated for 5 days by trypan blue exclusion assay relative to control; set-up: scale not given: the % may be the effect or the level left; details: time 5 day
[2] = tested on: SK-BR-3; assay: Induction of apoptosis […] in human SK-BR-3 cells assessed as late apoptotic cells at 5 uM incubated for 24 hrs by flow cytometry with Annexin V-FITC/propidium iodide staining based flow cytometry analysis (Rvb= 2.2%)
[3] = tested on: SK-BR-3; assay: Induction of apoptosis in human SK-BR-3 cells assessed as late apoptotic cells at 10 uM incubated for 24 hrs by flow cytometry with Annexin V-FITC/propidium iodide staining based flow cytometry assay (Rvb= 2.2%)
[4] = tested on: SK-BR-3; assay: Induction of apoptosis in human SK-BR-3 cells assessed as late apoptotic cells at 20 uM incubated for 24 hrs by flow cytometry with Annexin V-FITC/propidium iodide staining based flow cytometry assay (Rvb= 2.2%)
[5] = tested on: SK-BR-3; assay: Induction of apoptosis in human SK-BR-3 cells assessed as late apoptotic cells at 40 uM incubated for 24 hrs by flow cytometry with Annexin V-FITC/propidium iodide staining based flow cytometry assay (Rvb= 2.2%)
[6] = tested on: SK-BR-3; assay: Induction of apoptosis in human SK-BR-3 cells assessed as live cells at 5 uM measured after 24 hrs by annexin V-FITC/PI staining based flow cytometry analysis (Rvb= 90.6%)
[7] = tested on: SK-BR-3; assay: Induction of apoptosis in human SK-BR-3 cells assessed as early apoptotic cells at 5 uM measured after 24 hrs by annexin V-FITC/PI staining based flow cytometry analysis (Rvb= 2.2%)
[8] = tested on: SK-BR-3; assay: Induction of apoptosis in human SK-BR-3 cells assessed as dead cells at 5 uM measured after 24 hrs by annexin V-FITC/PI staining based flow cytometry analysis (Rvb= 5.0%)
[9] = tested on: SK-BR-3; assay: Induction of apoptosis in human SK-BR-3 cells assessed as live cells at 10 uM measured after 24 hrs by annexin V-FITC/PI staining based flow cytometry analysis (Rvb= 90.6%)
[10] = tested on: SK-BR-3; assay: Induction of apoptosis in human SK-BR-3 cells assessed as early apoptotic cells at 10 uM measured after 24 hrs by annexin V-FITC/PI staining based flow cytometry analysis (Rvb= 2.2%)
[11] = tested on: SK-BR-3; assay: Induction of apoptosis in human SK-BR-3 cells assessed as dead cells at 10 uM measured after 24 hrs by annexin V-FITC/PI staining based flow cytometry analysis (Rvb= 5.0%)
[12] = tested on: SK-BR-3; assay: Induction of apoptosis in human SK-BR-3 cells assessed as live cells at 20 uM measured after 24 hrs by annexin V-FITC/PI staining based flow cytometry analysis (Rvb= 90.6%)
[13] = tested on: SK-BR-3; assay: Induction of apoptosis in human SK-BR-3 cells assessed as early apoptotic cells at 20 uM measured after 24 hrs by annexin V-FITC/PI staining based flow cytometry analysis (Rvb= 2.2%)
[14] = tested on: SK-BR-3; assay: Induction of apoptosis in human SK-BR-3 cells assessed as dead cells at 20 uM measured after 24 hrs by annexin V-FITC/PI staining based flow cytometry analysis (Rvb= 5.0%)
[15] = tested on: SK-BR-3; assay: Induction of apoptosis in human SK-BR-3 cells assessed as live cells at 40 uM measured after 24 hrs by annexin V-FITC/PI staining based flow cytometry analysis (Rvb= 90.6%)
[16] = tested on: SK-BR-3; assay: Induction of apoptosis in human SK-BR-3 cells assessed as early apoptotic cells at 40 uM measured after 24 hrs by annexin V-FITC/PI staining based flow cytometry analysis (Rvb= 2.2%)
[17] = tested on: SK-BR-3; assay: Induction of apoptosis in human SK-BR-3 cells assessed as dead cells at 40 uM measured after 24 hrs by annexin V-FITC/PI staining based flow cytometry analysis (Rvb= 5.0%)

CC[C@H](C)[C@H](NC(=O)[C@H](CC(C)C)NC(=O)[C@H](CCCNC(=N)N)NC(=O)[C@H](CCCNC(=N)N)NC(=O)[C@H](CCCNC(=N)N)NC(=O)[C@H](CCCNC(=N)N)NC(=O)[C@H](CCC(N)=O)NC(=O)[C@H](CCCNC(=N)N)NC(=O)[C@H](CCCNC(=N)N)NC(=O)[C@H](CCCCN)NC(=O)[C@H](CCCCN)NC(=O)[C@H](CCCNC(=N)N)NC(=O)CNC(=O)[C@H](Cc1ccc(O)cc1)NC(C)=O)C(=O)N[C@@H](CO)C(=O)N[C@@H](CCC(=O)O)C(=O)N[C@@H](CC(C)C)C(=O)N[C@@H]1CCCCCC/C=C/CCC[C@@H](C(=O)N[C@@H](C)C(N)=O)NC(=O)[C@H](CCCNC(=N)N)NC(=O)[C@H](CCC(N)=O)NC(=O)[C@H](CCCCN)NC(=O)[C@H](CCC(=O)O)NC(=O)[C@H](CCCNC(=N)N)NC(=O)[C@H](CC(=O)O)NC1=O was tested, and the Activity [1] was 30%, the Activity [2] was 8.2% and the Activity [3] was 8.1%. The Activity [4] was 6.1%, the Activity [5] was 21.6% and the Activity [6] was 91%. It also gave an Activity [7] of 0.2%, an Activity [8] of 0.4% and an Activity [9] of 90.6%. The Activity [10] was 0.2%, the Activity [11] was 0.8% and the Activity [12] was 89%. For the same compound, the Activity [13] was 1.1%, the Activity [14] was 3.5% and the Activity [15] was 76.1%. The Activity [16] was 0.8% and the Activity [17] was 1.5%.
